Laboratory results: US8048901B2, “1,3-substituted cycloalkyl derivatives having acidic, mostly heterocyclic groups, processes for their preparation and their use as pharmaceuticals” (Aventis Pharma Deutschland GmbH, priority 2003, dated 2011)

Target: T1, human PPARalpha (Homo sapiens, UniProt Q07869)
T1 construct: human PPARalpha receptor (amino acids S167-Y468); expressed in transfected cells; host or cells: HEK cells (human embryo kidney), stably transfected with a pcDNA3-based plasmid
T1 sequence (Q07869 167-468): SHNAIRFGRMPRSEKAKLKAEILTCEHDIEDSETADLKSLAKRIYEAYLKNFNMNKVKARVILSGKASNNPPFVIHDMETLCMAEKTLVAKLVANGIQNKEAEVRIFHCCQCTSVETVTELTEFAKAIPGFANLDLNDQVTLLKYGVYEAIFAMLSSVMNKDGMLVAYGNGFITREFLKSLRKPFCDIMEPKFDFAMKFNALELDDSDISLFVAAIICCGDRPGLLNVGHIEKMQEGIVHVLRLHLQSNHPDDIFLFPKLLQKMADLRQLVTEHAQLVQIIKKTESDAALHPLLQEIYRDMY
Test: Cellular PPARalpha assay (stably transfected HEK PPARalpha reporter cell line, luciferase)
Type: cell-based
Conditions: GR-GAL4-humanPPARalpha-LBD, luciferase readout
Experimental: Determination of EC50 Values of PPAR Agonists in the Cellular PPARalpha Assay
The potency of substances which bind to human PPARalpha and activate in an agonistic manner is analyzed using a stably transfected HEK cell line (HEK=human embryo kidney) which is referred to here as PPARalpha reporter cell line. It contains two genetic elements, a luciferase reporter element (pdeltaM-GAL4-Luc-Zeo) and a PPARalpha fusion protein (GR-GAL4-humanPPARalpha-LBD) which mediates expression of the luciferase reporter element depending on a PPARalpha ligand. The stably and constitutively expressed fusion protein GR-GAL4-humanPPARalpha-LBD binds in the cell nucleus of the PPARalpha reporter cell line via the GAL4 protein portion to the GAL4 DNA binding motifs 5′-upstream of the luciferase reporter element which is integrated in the genome of the cell line. There is only little expression of the luciferase reporter gene without addition of a PPARalpha ligand if fatty acid-depleted fetal calf serum (cs-FCS) is used in the assay. PPARalpha ligands bind and activate the PPARalpha fusion protein and thereby bring about expression of the luciferase reporter gene. The luciferase which is formed can be detected by means of chemiluminescence via an appropriate substrate.
The PPARalpha reporter cell line was prepared in 2 stages. Firstly, the luciferase reporter element was constructed and stably transfected into HEK cells. For this purpose, five binding sites of the yeast transcription factor GAL4 (each 5′-CGGAGTACTGTCCTCCGAG-3′) (SEQ ID No. 1) were cloned in 5′-upstream of a 68 bp-long minimal MMTV promoter (Genbank Accession # V01175). The minimal MMTV promoter section contains a CCAAT box and a TATA element in order to enable efficient transcription by RNA polymerase II. The cloning and sequencing of the GAL4-MMTV construct took place in analogy to the description of Sambrook J. et. al. (Molecular cloning, Cold Spring Harbor Laboratory Press, 1989). Then the complete Photinus pyralis gene (Genbank Accession # M15077) was cloned in 3′-downstream of the GAL4-MMTV element. After sequencing, the luceriferase reporter element consisting of five GAL4 binding sites, MMTV promoter and luciferase gene was recloned into a plasmid which confers zeocin resistance in order to obtain the plasmid pdeltaM-GAL4-Luc-Zeo. This vector was transfected into HEK cells in accordance with the statements in Ausubel, F. M. et al. (Current protocols in molecular biology, Vol. 1-3, John Wiley & Sons, Inc., 1995).
In a second step, the PPARalpha fusion protein (GR-GAL4-humanPPARalpha-LBD) was introduced into the stable cell clone described. For this purpose, initially the cDNA coding for the N-terminal 76 amino acids of the glucocorticoid receptor (Genbank Accession # P04150) was linked to the cDNA section coding for amino acids 1-147 of the yeast transcription factor GAL4 (Genbank Accession # P04386). The cDNA of the ligand-binding domain of the human PPARalpha receptor (amino acids S167-Y468; Genbank Accession # S74349) was cloned in at the 3′-end of this GR-GAL4 construct. The fusion construct prepared in this way (GR-GAL4-humanPPARalpha-LBD) was recloned into the plasmid pcDNA3 (from Invitrogen) in order to enable constitutive expression therein by the cytomegalovirus promoter. This plasmid was linearized with a restriction endonuclease and stably transfected into the previously described cell clone containing the luciferase reporter element. The finished PPARalpha reporter cell line which contains a luciferase reporter element and constitutively expresses the PPARalpha fusion protein (GR-GAL4-human PPARalpha-LBD) was isolated by selection with zeocin (0.5 mg/ml) and G418 (0.5 mg/ml).
The activity of PPARalpha agonists is determined in a 3-day assay which is described below: […]

Row | EC50 [nM] | SMILES
1 | 469 | CCc1ccc2c(c1)cc(C(=O)O)n2CCO[C@@H]1CCC[C@H](OCc2nc(-c3cccc(C)c3)oc2C)C1 [Example VII, (1R,3S)-5-Ethyl-1-{2-[3-(5-methyl-2-m-tolyloxazol-4-ylmethoxy)cyclohexyloxy]ethyl}-1H-indole-2-carboxylic acid]
2 | 519 | Cc1cccc(-c2nc(CO[C@H]3CCC[C@@H](OCCOc4ccccc4C(=O)O)C3)c(C)o2)c1 [Example XV, (1R,3S)-2-{2-[3-(5-Methyl-2-m-tolyloxazol-4-ylmethoxy)cyclohexyloxy]-ethoxy}benzoic acid]
3 | 106 | Cc1cccc(-c2nc(CO[C@H]3CCC[C@@H](OCCOc4cccc(C)c4C(=O)O)C3)c(C)o2)c1 [Example XIV, (1R,3S)-2-Methyl-6-{2-[3-(5-methyl-2-m-tolyloxazol-4-ylmethoxy)cyclohexyloxy]ethoxy}benzoic acid]
4 | 24 | Cc1ccc(-c2nc(CO[C@@H]3CCC[C@H](Cn4c(C(=O)O)cc5ccccc54)C3)c(C)o2)cc1 (racemic) [Example XXVI, 1-[(1S,3R)/(1R,3S)-3-(5-Methyl-2-p-tolyloxazol-4-ylmethoxy)cyclohexylmethyl]-1H-indole-2-carboxylic acid]
5 | 361 | COc1ccc2cc(C(=O)O)n(CCO[C@@H]3CCC[C@H](OCc4nc(-c5cccc(C)c5)oc4C)C3)c2c1 [Example XI, (1R,3S)-6-Methoxy-1-{2-[3-(5-methyl-2-m-tolyloxazol-4-ylmethoxy)cyclohexyloxy]ethyl}-1H-indole-2-carboxylic acid]
6 | 530 | Cc1cccc(-c2nc(CO[C@H]3CCC[C@@H](OCCOc4cccc(C)c4[N+](=O)[O-])C3)c(C)o2)c1 [Example XXI, (1S,3R)-5-Methyl-4-{3-[2-(3-methyl-2-nitrophenoxy)ethoxy]cyclohexyloxymethyl}-2-m-tolyloxazole]
7 | 222 | Cc1cccc(-c2nc(CO[C@H]3CCC[C@@H](OCCOc4cc(C(F)(F)F)sc4C(=O)O)C3)c(C)o2)c1 [Example XXIII, (1R,3S)-3-{2-[3-(5-Methyl-2-m-tolyloxazol-4-ylmethoxy)cyclohexyloxy]ethoxy}-5-trifluoromethylthiophene-2-carboxylic acid]
8 | 331 | Cc1cccc(-c2nc(CO[C@H]3CCC[C@@H](OCCCNS(=O)(=O)C(F)(F)F)C3)c(C)o2)c1 [Example II, (1R,3S)—C,C,C-Trifluoro-N-{3-[3-(5-methyl-2-m-tolyloxazol-4-ylmethoxy)cyclohexyloxy]propyl}methanesulfonamide]
